Test results as given in publication PMC10060569 (Frontiers in Pharmacology, 2023).

Target: T1, native pig P2X2/3Rs in DRG neurons (Sus scrofa, UniProt F1RI70+I3L7H5)
T1 sequence (I3L7H5 1-397): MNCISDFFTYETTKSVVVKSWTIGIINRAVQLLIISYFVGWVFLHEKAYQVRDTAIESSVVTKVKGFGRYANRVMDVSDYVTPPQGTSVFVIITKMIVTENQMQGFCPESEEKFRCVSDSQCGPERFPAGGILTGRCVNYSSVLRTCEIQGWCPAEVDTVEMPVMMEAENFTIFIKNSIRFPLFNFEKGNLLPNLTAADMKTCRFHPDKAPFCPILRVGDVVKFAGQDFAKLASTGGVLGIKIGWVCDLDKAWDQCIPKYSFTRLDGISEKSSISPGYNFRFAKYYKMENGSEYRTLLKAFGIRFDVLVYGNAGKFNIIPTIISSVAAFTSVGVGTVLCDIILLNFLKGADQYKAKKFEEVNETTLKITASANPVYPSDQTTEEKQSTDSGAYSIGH
T1 sequence (F1RI70 1-417): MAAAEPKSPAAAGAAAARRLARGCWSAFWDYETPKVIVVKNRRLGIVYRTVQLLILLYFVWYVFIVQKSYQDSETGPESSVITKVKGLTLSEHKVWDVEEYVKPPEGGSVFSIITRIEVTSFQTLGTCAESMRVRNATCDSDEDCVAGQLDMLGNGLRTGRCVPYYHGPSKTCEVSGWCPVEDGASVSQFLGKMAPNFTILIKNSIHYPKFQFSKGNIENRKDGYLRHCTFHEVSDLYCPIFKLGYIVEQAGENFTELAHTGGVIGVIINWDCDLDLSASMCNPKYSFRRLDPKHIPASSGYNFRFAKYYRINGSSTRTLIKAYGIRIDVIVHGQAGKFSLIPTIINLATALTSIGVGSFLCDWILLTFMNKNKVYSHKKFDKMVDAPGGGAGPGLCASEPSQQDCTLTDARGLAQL
Experiment: Whole-cell patch-clamp of α,β-meATP-induced currents in pig DRG neurons

[1] = 100 µM diclofenac, 10 µM α,β-meATP, n = 11

Protocol: For this purpose, pigs of the German Landrace breed, with an average age of 15 weeks (14.6 SD2.7) and weight of 47.3 kg (SD11.2), were euthanized using an overdose of pentobarbital 60 mg/kg body weight. Subsequently, the DRG were collected. The DRG of pigs were transferred on ice, and fine excision was performed in ice-cold DMEM F12 medium containing 10% FBS and treated with 1 mg/ml collagenase P, 1 mg/ml trypsin T1426, and 0.1 mg/ml DNAse for digestion. Then, the DRG were cut into small pieces inside the digestion medium for surface enlargement and incubated at 37°C and 5% CO2 for 120 ±30 min. After approximately 60 min in the digestion medium, the DRG were triturated using a glass pipette. After the full incubation time, they were triturated thrice using custom-pulled glass pipettes with decreasing tip diameters (from ∼1.1–1.2 to ∼0.3–0.4 mm). For further purification, the DRG were centrifuged at 500 G and 4°C twice for 4 minutes each, and the pellets were suspended in DMEM F12 with 10% FBS. They were subsequently separated from lighter cell fragments and myelin by centrifugation of a Percoll gradient containing a 60% Percoll and a 25% Percoll gradient for 20 min at 500 G. DRG neurons were plated on coverslips coated with poly-D-lysine (100 μg/ml), laminin (10 μg/ml), and fibronectin (10 μg/ml). Neurons were then cultured in neurobasal A medium supplemented with B27, penicillin, streptomycin, and L-glutamine and used for voltage-clamp recordings after 12–72 h in culture.
Whole-cell voltage-clamp recordings of DRG neurons were performed using glass electrodes with micropipette tip resistances of 1.3–3.5 MΩ, pulled and fire-polished with a Zeitz DMZ-puller. The intracellular solution contained 10 mM NaCl, 140 mM CsF, 10 mM HEPES, 1 mM EGTA, 5 mM glucose, and 5 mM TEA-Cl (adjusted to pH 7.3 using CsOH). The extracellular bathing solution contained 140 mM NaCl, 3 mM KCl, 1 mM MgCl2, 1 mM CaCl2, 10 mM HEPES, and 20 mM glucose (adjusted to pH 7.4 using NaOH). The liquid junction potential was corrected by −7.8 mV. […]

O=C(O)Cc1ccccc1Nc1c(Cl)cccc1Cl [Diclofenac, diclofenac]
mean block ± SD, fourth application vs. mean of third and fifth application [1]: 70.9 ± 37.2% | mean block ± SD, fourth application vs. preceding third application [1]: 70.2 ± 34.3% | inhibition at 100 µM (DRG neuron, read-out: inhibition of α,β-meATP-elicited whole-cell currents by 100 µM diclofenac): 70.5%
